# Values of other authors as cited in patent US6077537A (Warner-Lambert Company, priority 1998, dated 2000).
# Details: relative to parent compound
smiles,measurement,value
Cc1ccc(C(=CCN2CCCC2)c2cccc(CCC(=O)O)n2)cc1 [propionic acid analogue of acrivastine],plasma concentration of principal active metabolite,well below those of parent compound
